Source: patent US12685726B2, “Sulfoximines as inhibitors of NaV1.8” (Gruenenthal GmbH, priority 2022, dated 2026)

Target: T1, human NaV 1.8 (Homo sapiens, UniProt Q9Y5Y9)
T1 construct: expressed in transfected cells; host or cells: HEK (recombinant cell line)
Test: Automated whole-cell patch clamp (Qube384) voltage-clamp recordings of sodium currents in HEK-NaV1.8 cell line
Assay type: cell-based
Conditions: read-out: Potency category (human NaV 1.8 IC50)
Summary of the method: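 HEK cells expressing NaV1.8 with b3, whole-cell automated voltage clamp at room temperature or 19° C.; CsF-based internal, pH 7.4 external. State-dependent (−120 mV, V1/2 4 s, −10 mV test pulses) and 10/20 Hz 40-pulse protocols; ~12 min compound, vehicle-corrected, IC50 by 4-parameter logistic fit.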

T1 sequence (Q9Y5Y9 whole entry): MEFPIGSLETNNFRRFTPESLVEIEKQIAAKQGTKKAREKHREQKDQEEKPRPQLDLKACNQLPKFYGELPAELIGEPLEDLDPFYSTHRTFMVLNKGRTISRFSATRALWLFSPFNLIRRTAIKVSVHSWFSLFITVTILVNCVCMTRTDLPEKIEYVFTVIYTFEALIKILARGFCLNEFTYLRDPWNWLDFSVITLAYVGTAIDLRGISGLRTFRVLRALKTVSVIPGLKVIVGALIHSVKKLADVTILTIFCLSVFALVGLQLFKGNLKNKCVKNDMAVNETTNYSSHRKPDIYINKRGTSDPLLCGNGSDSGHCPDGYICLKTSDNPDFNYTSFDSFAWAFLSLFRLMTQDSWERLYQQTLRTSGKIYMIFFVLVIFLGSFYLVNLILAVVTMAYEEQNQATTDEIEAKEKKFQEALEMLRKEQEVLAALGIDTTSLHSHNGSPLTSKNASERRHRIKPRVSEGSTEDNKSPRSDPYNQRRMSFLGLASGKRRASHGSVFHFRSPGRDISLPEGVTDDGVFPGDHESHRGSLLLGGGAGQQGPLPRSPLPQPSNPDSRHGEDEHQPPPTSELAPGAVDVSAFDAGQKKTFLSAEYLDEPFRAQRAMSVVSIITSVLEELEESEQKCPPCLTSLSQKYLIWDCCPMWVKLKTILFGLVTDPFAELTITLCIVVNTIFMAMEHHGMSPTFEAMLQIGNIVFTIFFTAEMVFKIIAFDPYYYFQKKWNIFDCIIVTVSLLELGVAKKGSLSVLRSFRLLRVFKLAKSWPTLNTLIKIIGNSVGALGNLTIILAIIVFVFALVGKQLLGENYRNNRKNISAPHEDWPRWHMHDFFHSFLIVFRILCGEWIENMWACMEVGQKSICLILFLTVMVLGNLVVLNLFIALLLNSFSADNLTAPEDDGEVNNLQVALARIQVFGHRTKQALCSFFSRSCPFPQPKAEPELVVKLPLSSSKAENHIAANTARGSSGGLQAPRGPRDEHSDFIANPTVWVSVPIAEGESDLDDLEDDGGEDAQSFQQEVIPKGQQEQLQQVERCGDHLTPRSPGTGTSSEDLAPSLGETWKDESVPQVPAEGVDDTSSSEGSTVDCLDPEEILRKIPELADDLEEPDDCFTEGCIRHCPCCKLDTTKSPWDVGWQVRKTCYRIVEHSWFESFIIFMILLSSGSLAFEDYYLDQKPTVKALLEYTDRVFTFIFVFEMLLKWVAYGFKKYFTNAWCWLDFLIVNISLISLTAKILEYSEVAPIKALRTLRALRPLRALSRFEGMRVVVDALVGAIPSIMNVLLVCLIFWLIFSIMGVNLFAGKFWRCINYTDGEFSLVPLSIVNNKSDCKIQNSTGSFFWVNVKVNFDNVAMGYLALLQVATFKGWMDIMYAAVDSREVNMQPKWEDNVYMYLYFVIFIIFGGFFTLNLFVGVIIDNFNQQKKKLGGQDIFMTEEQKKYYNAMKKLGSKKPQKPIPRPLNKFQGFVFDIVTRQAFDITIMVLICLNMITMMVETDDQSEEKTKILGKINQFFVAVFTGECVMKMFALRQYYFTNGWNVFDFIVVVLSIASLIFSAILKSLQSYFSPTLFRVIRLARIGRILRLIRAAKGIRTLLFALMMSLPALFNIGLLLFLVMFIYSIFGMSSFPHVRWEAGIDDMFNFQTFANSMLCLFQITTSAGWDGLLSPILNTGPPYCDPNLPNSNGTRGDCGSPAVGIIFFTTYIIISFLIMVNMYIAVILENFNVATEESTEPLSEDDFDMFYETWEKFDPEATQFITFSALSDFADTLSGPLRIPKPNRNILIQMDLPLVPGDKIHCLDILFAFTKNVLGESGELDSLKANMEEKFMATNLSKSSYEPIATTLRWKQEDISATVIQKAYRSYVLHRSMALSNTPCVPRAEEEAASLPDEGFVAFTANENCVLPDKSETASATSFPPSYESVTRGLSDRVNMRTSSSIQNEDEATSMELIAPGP

IC50 [nM] | Compound
≤ 100 | CC1(Cn2nc(C3CC3)c(C(F)(F)F)c2C(=O)Nc2cnnc(S(C)(=N)=O)c2)CC(F)(F)C1 (single isomer, unassigned) [Example 47b, 3-cyclopropyl-1-((3,3-difluoro-1-methylcyclobutyl)methyl)-N-(6-(S-methylsulfonimidoyl)pyridazin-4-yl)-4-(trifluoromethyl)-1H-pyrazole-5-carboxamide]
≤ 100 | CS(=N)(=O)c1cc(NC(=O)c2c(C(F)(F)F)c(C3CC3)nn2CC2C3(CC3)C23CC3)ccn1 (single isomer, unassigned) [Example 80b, 3-cyclopropyl-1-(dispiro[2.0.24.13]heptan-7-ylmethyl)-N-(2-(S-methylsulfonimidoyl)pyridin-4-yl)-4-(trifluoromethyl)-1H-pyrazole-5-carboxamide]
≤ 100 | CC1(Cn2nc(C3(F)CC3)c(C(F)(F)F)c2C(=O)Nc2cccc(S(=N)(=O)C(F)(F)F)c2)CC(F)(F)C1 (stereo not drawn) [Example 131, 1-((3,3-Difluoro-1-methylcyclobutyl)methyl)-3-(1-fluorocyclopropyl)-4-(trifluoromethyl)-N-(3-(S-(trifluoromethyl)sulfonimidoyl)phenyl)-1H-pyrazole-5-carboxamide]
≤ 100 | CS(=N)(=O)c1cc(NC(=O)c2c(C(F)(F)F)c(C3CC3)nn2CC2C(F)(F)C23CCC3)ccn1 (single isomer, unassigned) [Example 136a, 3-Cyclopropyl-1-((2,2-difluorospiro[2.3]hexan-1-yl)methyl)-N-(2-(S-methylsulfonimidoyl)pyridin-4-yl)-4-(trifluoromethyl)-1H-pyrazole-5-carboxamide]
≤ 100 | CC1(Cn2nc(C3CC3)c(C(F)(F)F)c2C(=O)Nc2ccnc(S(C)(=N)=O)c2)CC(F)(F)C1 (single isomer, unassigned) [Example 1a, 3-cyclopropyl-1-((3,3-difluoro-1-methylcyclobutyl)methyl)-N-(2-(S-methylsulfonimidoyl)pyridin-4-yl)-4-(trifluoromethyl)-1H-pyrazole-5-carboxamide]
≤ 100 | CC1(Cn2nc(C3CCC3)c(C(F)(F)F)c2C(=O)Nc2ccnc(S(C)(=N)=O)c2)CC(F)(F)C1 (single isomer, unassigned) [Example 56b, 3-cyclobutyl-1-((3,3-difluoro-1-methylcyclobutyl)methyl)-N-(2-(S-methylsulfonimidoyl)pyridin-4-yl)-4-(trifluoromethyl)-1H-pyrazole-5-carboxamide]
≤ 100 | CC1(Cn2nc(C3CC3)c(C(F)(F)F)c2C(=O)Nc2ccnc(S(C)(=O)=NC#N)c2)CC(F)(F)C1 (single isomer, unassigned) [Example 142a, N-(2-(N-Cyano-S-methylsulfonimidoyl)pyridin-4-yl)-3-cyclopropyl-1-((3,3-difluoro-1-methylcyclobutyl)methyl)-4-(trifluoromethyl)-1H-pyrazole-5-carboxamide]
≤ 100 | CC1(Cn2nc(C3CC3)c(C(F)(F)F)c2C(=O)Nc2ccc(F)c(S(C)(=N)=O)c2)CC(F)(F)C1 (single isomer, unassigned) [Example 132a, 3-Cyclopropyl-1-((3,3-difluoro-1-methylcyclobutyl)methyl)-N-(4-fluoro-3-(S-methylsulfonimidoyl)phenyl)-4-(trifluoromethyl)-1H-pyrazole-5-carboxamide]
≤ 100 | CC1(Cn2nc(C3CC3)c(C(F)(F)F)c2C(=O)Nc2cccc(S(C)(=N)=O)c2)CC(F)(F)C1 (single isomer, unassigned) [Example 45b, 3-cyclopropyl-1-((3,3-difluoro-1-methylcyclobutyl)methyl)-N-(3-(S-methylsulfonimidoyl)phenyl)-4-(trifluoromethyl)-1H-pyrazole-5-carboxamide]
≤ 100 | CN=S(C)(=O)c1cc(NC(=O)c2c(C)c(C(C)(F)F)nn2CC2(C)CC(F)(F)C2)ccn1 (single isomer, unassigned) [Example 34a, 1-((3,3-Difluoro-1-methylcyclobutyl)methyl)-3-(1,1-difluoroethyl)-N-(2-(N,S-dimethylsulfonimidoyl)pyridin-4-yl)-4-methyl-1H-pyrazole-5-carboxamide]
≤ 100 | CC1(Cn2nc(C34CC(C3)C4(F)F)c(C(F)(F)F)c2C(=O)Nc2ccnc(S(C)(=N)=O)c2)CC(F)(F)C1 (single isomer, unassigned) [Example 114, 1-((3,3-Difluoro-1-methylcyclobutyl)methyl)-3-(2,2-difluorobicyclo[1.1.1]pentan-1-yl)-N-(2-(S-methylsulfonimidoyl)pyridin-4-yl)-4-(trifluoromethyl)-1H-pyrazole-5-carboxamide]
≤ 100 | CC1(Cn2nc(C3CC4(CC4)C3)c(C(F)(F)F)c2C(=O)Nc2ccnc(S(C)(=N)=O)c2)CC(F)(F)C1 (single isomer, unassigned) [Example 61b, 1-((3,3-Difluoro-1-methylcyclobutyl)methyl)-N-(2-(S-methylsulfonimidoyl)pyridin-4-yl)-3-(spiro[2.3]hexan-5-yl)-4-(trifluoromethyl)-1H-pyrazole-5-carboxamide]
≤ 100 | C[S@@](=N)(=O)c1cccc(NC(=O)c2c(C(F)(F)F)c(C3(F)CC3)nn2CC2C[C@H]2C(F)(F)F)c1 (single isomer, unassigned) [Example 134c, 3-(1-Fluorocyclopropyl)-N-(3-(S-methylsulfonimidoyl)phenyl)-4-(trifluoromethyl)-1-(((trans)-2-(trifluoromethyl)cyclopropyl)methyl)-1H-pyrazole-5-carboxamide]
≤ 100 | C[S@](=N)(=O)c1cc(NC(=O)c2c(C(F)(F)F)c(C3CC3)nn2C[C@@H]2CC23CC3)ccn1 (single isomer, unassigned) [Example 78b, 3-cyclopropyl-N-(2-(S-methylsulfonimidoyl)pyridin-4-yl)-1-(spiro[2.2]pentan-1-ylmethyl)-4-(trifluoromethyl)-1H-pyrazole-5-carboxamide]
≤ 100 | C[C@H]1C[C@@H]1c1nn(CC2(C)CC(F)(F)C2)c(C(=O)Nc2ccnc([S@](C)(=N)=O)c2)c1C(F)(F)F (single isomer, unassigned) [Example 65a, 1-((3,3-Difluoro-1-methylcyclobutyl)methyl)-3-((trans)-2-methylcyclopropyl)-N-(2-(S-methylsulfonimidoyl)pyridin-4-yl)-4-(trifluoromethyl)-1H-pyrazole-5-carboxamide]
≤ 100 | CC1(Cn2nc(C3(F)CC3)c(C(F)(F)F)c2C(=O)Nc2cc(F)cc(S(C)(=N)=O)c2)CC(F)(F)C1 (single isomer, unassigned) [Example 127a, 1-((3,3-Difluoro-1-methylcyclobutyl)methyl)-N-(3-fluoro-5-(S-methylsulfonimidoyl)phenyl)-3-(1-fluorocyclopropyl)-4-(trifluoromethyl)-1H-pyrazole-5-carboxamide]
≤ 100 | Cc1c(C(C)(F)F)nn(CC2(C)CCC(F)(F)CC2)c1C(=O)Nc1ccnc(S(C)(=N)=O)c1 (single isomer, unassigned) [Example 11a, 1-((4,4-difluoro-1-methylcyclohexyl)methyl)-3-(1,1-difluoroethyl)-4-methyl-N-(2-(S-methylsulfonimidoyl)pyridin-4-yl)-1H-pyrazole-5-carboxamide]
